Results as given in publication PMC3010267 (Analytical biochemistry, 2010).

Key:
[1] = biological target: β1 adrenergic receptor (β1AR*) (Meleagris gallopavo, UniProt P07700, A282L/F327A/F338M/R68S/Y227A); assay: biochemical; type: binding, turkey
[2] = biological target: A2A adenosine receptor (A2AR*, with mutations A54L, T88A, K122A, and V239A) (Homo sapiens, UniProt P29274, A54L/K122A/T88A/V239A); assay: Biacore kinetic analysis of antagonists binding to capture-coupled A2AR*
[3] = biological target: β1 adrenergic receptor (β1AR*, with mutations R68S, Y227A, A282L, F237A, and F338M) (Meleagris gallopavo, UniProt P07700, A282L/F327A/F338M/R68S/Y227A); assay: biochemical; type: binding, turkey

| Structure (SMILES) | Kd [1] | kd [3] | also measured |
| --- | --- | --- | --- |
| COc1ccc(OC)c(C(O)C(C)NC(C)(C)C)c1 (centres unmarked) [butoxamine] | 5.15 µM |  |  |
| Nc1nc2c(cnn2CCc2ccccc2)c2nc(-c3ccco3)nn12 [SCH 58261] |  |  | kd [2]: 6.6(2) × 10^−2 s^−1; ka ([2]; biacore capture-coupled a2ar*): 1.00(3) × 10^6 M^−1s^−1 |
| CC[C@@H](CO)NC(=O)[C@@H]1C=C2c3cccc4[nH]cc(c34)C[C@H]2N(C)C1 [methylergonovine] | 49.6 µM |  |  |
| CCCn1c(=O)[nH]c2nc(-c3ccc(S(=O)(=O)O)cc3)[nH]c2c1=O [PSB 1115] |  |  | Kd ([2]; A2AR, approximate value given in text for the displacement-regeneration compound): ~1 µM |
| CC(C)NCC(O)COc1ccc(CC(N)=O)cc1 (centres unmarked) [atenolol] | 49.2 µM |  |  |
| OC(CNCC(O)C1CCc2cc(F)ccc2O1)C1CCc2cc(F)ccc2O1 (centres unmarked) [nebivolol] |  | 1.50(3) × 10^−2 s^−1 |  |
| C=CCc1ccccc1OCC(O)CNC(C)C (centres unmarked) [alprenolol] |  | 2.49(7) × 10^−2 s^−1 | Kd [3]: 0.019 µM; ka [3]: 1.31(4) × 10^6 M^−1s^−1 |
| CC(CCc1ccccc1)NCC(O)c1ccc(O)c(C(N)=O)c1 (centres unmarked) [labetalol] |  |  | Kd [3]: 0.095 µM |
| CC(C)(C)NC[C@H](O)COc1nsnc1N1CCOCC1 [timolol] |  | 6.94(8) × 10^−3 s^−1 |  |
| NCCc1c[nH]c2ccc(O)cc12 [serotonin] | 14.2 µM |  |  |
| C[C@@H](CO)NC(=O)[C@@H]1C=C2c3cccc4[nH]cc(c34)C[C@H]2N(C)C1 [ergonovine] | 84.1 µM |  |  |
| CC(C)(C)NCC(O)c1cc(Cl)c(N)c(Cl)c1 (centres unmarked) [clenbuterol] |  | 1.33(5) × 10^−1 s^−1 | Kd [3]: 0.54 µM; ka [3]: 2.47(9) × 10^5 M^−1s^−1 |
